Data from patent US8394848B2, “Compounds that modulate intracellular calcium” (Calcimedica, Inc., priority 2008, dated 2013).

Test system: JR251 or RBL cells
Experiment: Store-operated calcium entry, either JR251 or RBL cells, or both
Format: cell-based
How it was run: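 FLIPR calcium-entry readout in fluo-4-loaded cells held in Ca2+-free HBSS before calcium add-back. For RBL-2H3, store depletion used thapsigargin for 25 min after a 5 min compound pre-incubation, and IC50 was based on the 7 s Upslope. For Orai1/STIM1 stable cells, compound was pre-incubated 30 min and IC50 was based on Peak-Basal.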

Row | IC50 [µM] | Compound
1 | < 10 | O=C(Nc1scc(-c2ccc(Cl)cc2)c1C(=O)O)c1ncc2ccccc2n1 [4-(4-chlorophenyl)-2-(quinazoline-2-carboxamido)thiophene-3-carboxylic acid]
2 | < 10 | O=C(O)c1c(-c2ccc(Br)cc2)csc1NC(=O)N1Cc2ccccc2C1 [4-(4-bromophenyl)-2-(isoindoline-2-carboxamido)thiophene-3-carboxylic acid]
3 | < 10 | O=C(Nc1scc(-c2ccc(Cl)c(Cl)c2)c1C(=O)O)c1ccsc1 [4-(3,4-dichlorophenyl)-2-(thiophene-3-carboxamido)thiophene-3-carboxylic acid]
4 | < 10 | O=C(CCCCc1ccccc1)Nc1scc(-c2ccc(Cl)cc2)c1C(=O)O [4-(4-chlorophenyl)-2-(5-phenylpentanamido)thiophene-3-carboxylic acid]
5 | < 10 | O=C(Nc1scc(-c2ccc(Cl)cc2)c1C(=O)O)c1nccc(-c2ccccc2)n1 [4-(4-chlorophenyl)-2-(4-phenylpyrimidine-2-carboxamido)thiophene-3-carboxylic acid]
6 | < 10 | O=C(Nc1scc(-c2ccc(Cl)cc2)c1C(=O)O)c1cc2ncccn2n1 [4-(4-chlorophenyl)-2-(pyrazolo[1,5-a]pyrimidine-2-carboxamido)thiophene-3-carboxylic acid]
7 | < 10 | O=C(Nc1scc(-c2ccc(Cl)cc2)c1C(=O)O)c1nc2ccc([N+](=O)[O-])cc2s1 [4-(4-chlorophenyl)-2-(6-nitrobenzo[d]thiazole-2-carboxamido)thiophene-3-carboxylic acid]
8 | < 10 | Cn1cnc(C(=O)Nc2scc(-c3ccc(Br)cc3)c2C(=O)O)c1 [4-(4-bromophenyl)-2-(1-methyl-1H-imidazole-4-carboxamido)thiophene-3-carboxylic acid]
9 | < 10 | O=C(Nc1scc(-c2ccc(Cl)c(F)c2)c1C(=O)O)c1nc2c(F)cccc2o1 [4-(4-chloro-3-fluorophenyl)-2-(4-fluorobenzo[d]oxazole-2-carboxamido)thiophene-3-carboxylic acid]
10 | < 10 | O=C(Nc1scc(-c2ccc(Br)cc2)c1C(=O)O)c1ccncc1 [4-(4-bromophenyl)-2-(isonicotinamido)thiophene-3-carboxylic acid]
11 | < 10 | O=C1CC(C(=O)Nc2scc(-c3ccc(Cl)cc3)c2C(=O)O)Cc2ccccc21 (stereo not shown) [4-(4-chlorophenyl)-2-(4-oxo-1,2,3,4-tetrahydronaphthalene-2-carboxamido)thiophene-3-carboxylic acid]
12 | < 10 | O=C(O)c1c(-c2ccc(Cl)cc2)csc1NC(=O)C1Cc2ccccc2S1 (stereo not shown) [4-(4-chlorophenyl)-2-(2,3-dihydrobenzo[b]thiophene-2-carboxamido)thiophene-3-carboxylic acid]
13 | < 10 | O=C(Nc1scc(-c2ccc(Br)cc2)c1C(=O)O)OCc1ccccc1Cl [4-(4-bromophenyl)-2-((2-chlorobenzyloxy)carbonylamino)thiophene-3-carboxylic acid]
14 | < 10 | COc1cccc(C(=O)Nc2scc(-c3ccc(Br)cc3)c2C(=O)O)n1 [4-(4-bromophenyl)-2-(6-methoxypicolinamido)thiophene-3-carboxylic acid]
15 | < 10 | O=C(Nc1scc(-c2cc3cccc(O)c3o2)c1C(=O)O)c1cc2ccccn2n1 [4-(7-hydroxybenzofuran-2-yl)-2-(pyrazolo[1,5-a]pyridine-2-carboxamido)thiophene-3-carboxylic acid]
16 | < 10 | O=C(O)c1c(-c2ccc(Br)cc2)csc1NC(=O)C(F)Cc1ccccc1Cl (stereo not shown) [4-(4-bromophenyl)-2-(3-(2-chlorophenyl)-2-fluoropropanamido)thiophene-3-carboxylic acid]
17 | < 10 | O=C(CCc1ccccc1)Nc1scc(-c2ccc(Br)cc2)c1C(=O)O [4-(4-bromophenyl)-2-(3-phenylpropanamido)thiophene-3-carboxylic acid]
18 | < 10 | O=C(Nc1scc(-c2ccc(Cl)cc2)c1C(=O)O)c1cnc(C(F)(F)F)nc1 [4-(4-chlorophenyl)-2-(2-(trifluoromethyl)pyrimidine-5-carboxamido)thiophene-3-carboxylic acid]
19 | < 10 | O=C(O)c1c(-c2ccc(Br)cc2)csc1NC(=O)C1COc2ccccc2C1 (stereo not shown) [4-(4-bromophenyl)-2-(chroman-3-carboxamido)thiophene-3-carboxylic acid]
20 | < 10 | O=C(CCc1ccc(F)cc1F)Nc1scc(-c2ccc(Cl)cc2)c1C(=O)O [4-(4-chlorophenyl)-2-(3-(2,4-difluorophenyl)propanamido)thiophene-3-carboxylic acid]
21 | < 10 | O=C(CCc1cccs1)Nc1scc(-c2ccc(Cl)cc2)c1C(=O)O [4-(4-chlorophenyl)-2-(3-(thiophen-2-yl)propanamido)thiophene-3-carboxylic acid]
22 | < 10 | Cc1cccc(C)c1CCC(=O)Nc1scc(-c2ccc(Br)cc2)c1C(=O)O [4-(4-bromophenyl)-2-(3-(2,6-dimethylphenyl)propanamido)thiophene-3-carboxylic acid]

Further lines, the compound ahead of its results:

Row | Compound | IC50 [µM]
23 | Cc1cc(F)c(-c2csc(NC(=O)c3cc4ccccc4o3)c2C(=O)O)cc1Cl [2-(benzofuran-2-carboxamido)-4-(5-chloro-2-fluoro-4-methylphenyl)thiophene-3-carboxylic acid] | < 10
24 | O=C(Nc1scc(-c2ccc(Cl)cc2)c1C(=O)O)c1nc2ccccc2[nH]1 [2-(1H-benzo[d]imidazole-2-carboxamido)-4-(4-chlorophenyl)thiophene-3-carboxylic acid] | < 10
25 | O=C(Nc1scc(-c2cc(F)c(Cl)c(F)c2)c1C(=O)O)c1nc2ccccc2s1 [2-(benzo[d]thiazole-2-carboxamido)-4-(4-chloro-3,5-difluorophenyl)thiophene-3-carboxylic acid] | < 10
26 | O=C(Nc1scc(-c2ccc(Cl)cc2)c1C(=O)O)c1ccc2scnc2c1 [2-(benzo[d]thiazole-5-carboxamido)-4-(4-chlorophenyl)thiophene-3-carboxylic acid] | < 10
27 | O=C(CCc1ccccc1)Nc1scc(-c2ccc(Cl)c(Cl)c2)c1C(=O)O [4-(3,4-dichlorophenyl)-2-(3-phenylpropanamido)thiophene-3-carboxylic acid] | < 10
28 | Cc1ccc(-c2csc(NC(=O)c3cccs3)c2C(=O)O)cc1 [2-(thiophene-2-carboxamido)-4-p-tolylthiophene-3-carboxylic acid] | < 10
29 | Cc1c(F)ccc(-c2csc(NC(=O)c3cc4ccccc4o3)c2C(=O)O)c1C [2-(benzofuran-2-carboxamido)-4-(4-fluoro-2,3-dimethylphenyl)thiophene-3-carboxylic acid] | < 10
30 | COc1cccc2cc(-c3csc(NC(=O)c4cc5ccccc5o4)c3C(=O)O)oc12 [2-(benzofuran-2-carboxamido)-4-(7-methoxybenzofuran-2-yl)thiophene-3-carboxylic acid] | < 10
31 | O=C(Nc1scc(-c2cc(F)c(F)c(F)c2)c1C(=O)O)c1nc2ccccc2o1 [2-(benzo[d]oxazole-2-carboxamido)-4-(3,4,5-trifluorophenyl)thiophene-3-carboxylic acid] | < 10
32 | O=C(Nc1scc(-c2cc3ccccc3o2)c1C(=O)O)c1cc2ccccc2o1 [2-(benzofuran-2-carboxamido)-4-(benzofuran-2-yl)thiophene-3-carboxylic acid] | < 10
33 | Cc1ccsc1C(=O)Nc1scc(-c2ccc(C(F)(F)F)cc2)c1C(=O)O [2-(3-methylthiophene-2-carboxamido)-4-(4-(trifluoromethyl)phenyl)thiophene-3-carboxylic acid] | < 10
34 | O=C(Nc1scc(-c2ccc(Cl)cc2F)c1C(=O)O)c1nc2ccccc2s1 [2-(benzo[d]thiazole-2-carboxamido)-4-(4-chloro-2-fluorophenyl)thiophene-3-carboxylic acid] | < 10
35 | Cc1ccc(-c2csc(NC(=O)c3ccc(-c4cccs4)s3)c2C(=O)O)cc1 [2-(2,2′-bithiophene-5-carboxamido)-4-p-tolylthiophene-3-carboxylic acid] | < 10
36 | COc1c(F)ccc(-c2csc(NC(=O)c3cc4ccccc4o3)c2C(=O)O)c1F [2-(benzofuran-2-carboxamido)-4-(2,4-difluoro-3-methoxyphenyl)thiophene-3-carboxylic acid] | < 10
37 | Cc1ccc(-c2csc(NC(=O)c3nc4ccccc4o3)c2C(=O)O)cc1F [2-(benzo[d]oxazole-2-carboxamido)-4-(3-fluoro-4-methylphenyl)thiophene-3-carboxylic acid] | < 10
38 | Cc1ccc(-c2csc(NC(=O)c3nc4cc(Br)ccc4o3)c2C(=O)O)c(F)c1F [2-(5-bromobenzo[d]oxazole-2-carboxamido)-4-(2,3-difluoro-4-methylphenyl)thiophene-3-carboxylic acid] | < 10
39 | Cc1ccc(-c2csc(NC(=O)c3scc(S(=O)(=O)C(C)C)c3Cl)c2C(=O)O)cc1 [2-(3-chloro-4-(isopropylsulfonyl)thiophene-2-carboxamido)-4-p-tolylthiophene-3-carboxylic acid] | < 10
40 | Cc1ccc(-c2csc(NC(=O)c3cc4c(F)cccn4n3)c2C(=O)O)c(F)c1F [4-(2,3-difluoro-4-methylphenyl)-2-(4-fluoropyrazolo[1,5-a]pyridine-2-carboxamido)thiophene-3-carboxylic acid] | < 10
41 | O=C(Nc1scc(-c2cc3cccc(O)c3o2)c1C(=O)O)c1nc2ccccc2s1 [2-(benzo[d]thiazole-2-carboxamido)-4-(7-hydroxybenzofuran-2-yl)thiophene-3-carboxylic acid] | < 10
42 | O=C(Nc1scc(-c2ccc(C(F)(F)F)cc2F)c1C(=O)O)c1nc2ccccc2o1 [2-(benzo[d]oxazole-2-carboxamido)-4-(2-fluoro-4-(trifluoromethyl)phenyl)thiophene-3-carboxylic acid] | < 10
43 | O=C(Nc1scc(-c2ccc(Br)c(F)c2F)c1C(=O)O)c1nc2ccccc2o1 [2-(benzo[d]oxazole-2-carboxamido)-4-(4-bromo-2,3-difluorophenyl)thiophene-3-carboxylic acid] | < 10
